Our source for the IC50 values is PubChem BioAssay AID1949 (Southern Research Institute, 2009).

The test system of the assay is M. tuberculosis H37Rv growth inhibition. Briefly: Mycobacterium tuberculosis H37Rv growth inhibition, cell based, confirmatory dose response (AID 1949).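 Note: bacteria grown 7 days with compound before Alamar blue readout.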

The structures appear in SMILES notation. Values after ≈ are worked out from the molar mass of the structure shown. Results filed as inconclusive are left out. Active and inactive are the calls of the source. The rule behind the calls is not given here.

What is called IC50 is the point on the concentration scale where inhibition reaches its midpoint. Turning to `Cc1ccc(Cl)cc1N(CC(=O)Nc1ccc(I)cc1)S(C)(=O)=O`, the IC50 is 4.66 µg/mL (≈ 9.73 µM).

Consider `O=C(Nc1nc2c(s1)CCCC2)c1ccc(Br)s1`, for which the IC50 was 0.62 µg/mL (≈ 1.81 µM).

For `CCN(CC)c1ccc(NC(=O)C23CC4CC(CC(C4)C2)C3)cc1`, the IC50 was > 50 µg/mL (inactive).

As to `CCN(CC)CCNc1nc(-c2cccc(Cl)c2)nc2ccccc12`, the IC50 is 46 µg/mL (≈ 130 µM).

For the compound `CC(C)(C)c1ccc(OCC(=O)Nc2ccc3c(c2)OCCO3)c(Br)c1`, the IC50 is 4.25 µg/mL (≈ 10.1 µM).

Take `CCSc1nc2ccccc2n1C(=O)c1ccc(S(=O)(=O)N2CCOCC2)cc1`: the IC50 is > 50 µg/mL (inactive).

`CCOc1ccccc1C(=O)Nc1cc(Cl)ccc1O`: the IC50 was 4.22 µg/mL (≈ 14.5 µM).

On to `CN1CCN(c2ccc(NC(=O)c3cccc(I)c3)cc2)CC1`, for which the IC50 was > 50 µg/mL (inactive).

`O=C(Nc1nccs1)c1ccc(CSc2ccccc2)o1`: the IC50 was 3.09 µg/mL (≈ 9.77 µM).

Take `O=C(Nc1ccc(-c2nc3ccccc3c(=O)o2)cc1)c1ccccc1I`: the IC50 is 0.37 µg/mL (≈ 0.79 µM).

As for `Oc1ccccc1-c1n[nH]c(/C=C/c2ccccc2Cl)n1`, the IC50 was 6.45 µg/mL (≈ 21.7 µM).

Turning to `COc1ccc(OC(C)C(=O)Nc2ccc(I)cc2)cc1` (stereo not drawn), the IC50 was 0.32 µg/mL (≈ 0.806 µM).

For `O=C(CCNc1cccc(Cl)c1)c1ccc([N+](=O)[O-])cc1`, the IC50 is 2.87 µg/mL (≈ 9.42 µM).

In the case of `Cc1ccc(Nc2ccc(-n3ccnc3)nn2)cc1Cl`, the half-maximal inhibitory concentration (IC50) is 2.67 µg/mL (≈ 9.34 µM).

Take `COC(=O)COc1ccc2c(-c3cccc([N+](=O)[O-])c3)cc(=O)oc2c1`: the IC50 is 0.34 µg/mL (≈ 0.957 µM).

In the case of `N#Cc1ccccc1NC(=O)CSc1nc2cc3ccccc3cc2[nH]1`, the IC50 is 2.68 µg/mL (≈ 7.48 µM).

As for `COc1ccc2c(c1)c(=O)oc1cc(OC(C)C(=O)c3ccccc3)ccc12` (stereo not drawn), the IC50 is 2.84 µg/mL (≈ 7.59 µM).

On to `Cc1ccc(C)c(OCC(=O)Nc2ccc(C(=O)OC(C)C)cc2)c1C`, for which the IC50 is 3.77 µg/mL (≈ 10.6 µM).

For `CN(C)c1ccc(CNC23CC4CC(CC(C4)C2)C3)cc1`, the IC50 is 1.43 µg/mL (≈ 5.03 µM).

With `Cc1cc(C)n(-c2nc3sc4c(c3c(=O)[nH]2)CCCC4)n1`, the IC50 was 24.4 µg/mL (≈ 81.1 µM).

For `COc1ccc(-c2csc(-c3cccnc3)n2)cc1C`, the IC50 was 12.9 µg/mL (≈ 45.9 µM).

Take `O=C(CNCCN1CCOCC1)Nc1sc2c(c1C(=O)Nc1ccccc1)CCC2`: the IC50 is 2.12 µg/mL (≈ 4.95 µM).

For `COc1ccc2nc(C)c3cc(C)oc3c2c1`, the IC50 was 1.82 µg/mL (≈ 8.01 µM).

In the case of `CCn1c(/C=C/c2ccc([N+](=O)[O-])o2)nc2ccc(I)cc2c1=O`, the IC50 is 2.04 µg/mL (≈ 4.67 µM).

`O=C(CSc1ccc(C(F)(F)F)cc1[N+](=O)[O-])OC1CCCCC1`: the IC50 was 1.26 µg/mL (≈ 3.47 µM).

With `O=C(COc1cccc(Cl)c1)Nc1ccc(F)c(Cl)c1`, the IC50 was 5.7 µg/mL (≈ 18.1 µM).

On to `N#Cc1ccc(NC(=O)Nc2cccc(Cl)c2)cc1`, for which the IC50 is 4.6 µg/mL (≈ 16.9 µM).

`CSc1ccc(C(CC(=O)c2ccccc2)Nc2ccc(F)cc2)cc1` (stereo not drawn): the IC50 is 1.47 µg/mL (≈ 4.02 µM).

As for `Cc1ccnc(N2C(=O)c3cccc4c([N+](=O)[O-])ccc(c34)C2=O)c1`, the IC50 is 1.4 µg/mL (≈ 4.2 µM).

`COC(=O)COc1ccc(NC(=O)c2ccccc2Br)cc1`: the IC50 was 1.17 µg/mL (≈ 3.21 µM).

As to `O=C1C(Cl)=C(c2ccc(Cl)cc2)C(=O)N1c1ccc(Cl)cc1`, the IC50 was > 50 µg/mL (inactive).

As to `Cn1nc([N+](=O)[O-])nc1Oc1ccc(Br)cc1`, the IC50 is 7.92 µg/mL (≈ 26.5 µM).

In the case of `O=C(CC1(O)C(=O)N(CCc2ccccc2)c2ccc(Cl)cc21)c1ccncc1` (stereo not drawn), the IC50 was 6.03 µg/mL (≈ 14.8 µM).

With `O=c1c2ccccc2nc(/C=C/c2ccc([N+](=O)[O-])o2)n1-c1cccc(O)c1`, the 50% inhibitory concentration (IC50) was 0.65 µg/mL (≈ 1.73 µM).

Consider `CCOC(=O)COc1cc2oc(=O)cc(CC)c2cc1Cl`, for which the IC50 was 1.43 µg/mL (≈ 4.6 µM).

Consider `CCC(C)c1ccc(OCCn2ccnc2)cc1` (stereo not drawn), for which the IC50 was 2.73 µg/mL (≈ 11.2 µM).

In the case of `C=C1C2(C(=O)Nc3nc4ccc(Br)cc4s3)CCC(C2)C1(C)C` (stereo not drawn), the IC50 was 11.4 µg/mL (≈ 29.1 µM).

With `COc1ccc(-c2nnc(SCC(=O)NCCc3ccccc3)o2)cc1`, the IC50 was < 0.1 µg/mL.

For `N#Cc1c(NC(=S)NC(=O)C2CCCC2)sc2c1CCCC2`, the IC50 is 28.4 µg/mL (≈ 85.2 µM).

`O=C1c2cccc3cccc(c23)C(=O)N1CCN1CCN(CC(O)COc2ccccc2Cl)CC1` (stereo not drawn): the IC50 was 2.93 µg/mL (≈ 5.93 µM).

Turning to `CN(C)c1ccc(Nc2ncnc3ccc(Br)cc23)cc1`, the IC50 is 1.08 µg/mL (≈ 3.15 µM).

For `CC(Oc1ccc(C(C)(C)C)cc1)c1nc(-c2ccncc2)no1` (stereo not drawn), the IC50 is 22.8 µg/mL (≈ 70.6 µM).

On to `O=C(NC(=S)N1CCCCCC1)c1ccc([N+](=O)[O-])cc1`, for which the IC50 was 1.42 µg/mL (≈ 4.62 µM).

As for `CCOC(=O)COc1ccc2c(=O)c(-c3ccccc3F)coc2c1C`, the IC50 is < 0.1 µg/mL.

With `O=C(CCSc1nnc(-c2ccccc2)o1)Nc1ccc(F)cc1`, the IC50 is 5.2 µg/mL (≈ 15.1 µM).

As for `CCCCn1c(NCc2ccc(N(CC)CC)cc2)nc2ccccc21`, the IC50 is 11.2 µg/mL (≈ 32 µM).

On to `O=C1CC(c2ccc(Cl)cc2)CC2=C1C(c1ccc(C(F)(F)F)cc1)Nc1ccccc1N2` (stereo not drawn), for which the IC50 was 2.14 µg/mL (≈ 4.56 µM).

Regarding `O=C(CCc1ccccc1)NC1C2CC3CC(C2)CC1C3` (stereo not drawn), the IC50 is 3.08 µg/mL (≈ 10.9 µM).

Consider `CCOC(=O)N1CCN(CC(O)COc2ccc(C3CCCCC3)cc2)CC1` (stereo not drawn), for which the IC50 is 3.69 µg/mL (≈ 9.45 µM).

In the case of `C/C(=N/N=C1\NC(=O)C(Cc2cccc(C(F)(F)F)c2)S1)c1ccc(C)cc1` (stereo not drawn), the IC50 was 4.95 µg/mL (≈ 12.2 µM).

Regarding `Cc1cccc(-n2nc([N+](=O)[O-])c(=NCCC3=CCCCC3)n2O)c1`, the IC50 is 3.62 µg/mL (≈ 10.5 µM).

With `O=[N+]([O-])c1ccc(N2CCN(CCO)CC2)cc1NCCOc1cccc2ccccc12`, the IC50 is 2.82 µg/mL (≈ 6.46 µM).

Consider `O=C(Nc1ccc(N2CCN(Cc3ccccc3)CC2)cc1)c1cccc(Cl)c1Cl`, for which the IC50 is 4.51 µg/mL (≈ 10.2 µM).

On to `COC(=O)COc1ccc2c(=O)c(Oc3ccccc3F)c(C)oc2c1C`, for which the IC50 is 6.55 µg/mL (≈ 17.6 µM).

For `CCCCOc1ccc(C(=O)NC23CC4CC(CC(C4)C2)C3)cc1`, the IC50 was 4.33 µg/mL (≈ 13.2 µM).

For the compound `COc1ccc(CCNC(=S)NC23CC4CC(CC(C4)C2)C3)cc1`, the IC50 was 7.85 µg/mL (≈ 22.8 µM).

Turning to `Cc1ccc(Cl)cc1N1CCN(CC(O)COc2ccc(Cl)cc2Cl)CC1` (stereo not drawn), the IC50 is 6.67 µg/mL (≈ 15.5 µM).

For the compound `CCOC(=O)c1ccc(NC(=S)NC(NC(=O)c2ccc(Br)cc2)C(Cl)(Cl)Cl)cc1` (stereo not drawn), the IC50 was 6.15 µg/mL (≈ 11.1 µM).

Take `O=C1c2ccccc2C(=O)c2c1nc1ccccn21`: the IC50 was 2.87 µg/mL (≈ 11.6 µM).

Take `O=S(=O)(CCSc1nc2ccccc2o1)c1nc2ccccc2s1`: the IC50 was 11.1 µg/mL (≈ 29.5 µM).

For the compound `CCNc1nc(NCC)nc(SCCOc2ccc(Br)cc2)n1`, the IC50 is 4.24 µg/mL (≈ 10.6 µM).

As for `CC(=O)Oc1cccc2ccc(/C=C/c3cccs3)nc12`, the IC50 was 1.14 µg/mL (≈ 3.86 µM).

As to `CC1CCN(c2cc(/C=C(\C#N)c3nn(-c4ccccc4)c(N)c3C#N)c3ccccc3n2)CC1`, the IC50 was > 50 µg/mL (inactive).

Consider `CC(Nc1nc(N2CCN(C(=O)c3ccc(Cl)cc3)CC2)nc2ccccc12)c1ccccc1` (stereo not drawn), for which the IC50 was 2.7 µg/mL (≈ 5.72 µM).

As for `Cc1cccnc1NC(=S)Nc1ccc(Cl)c(Cl)c1`, the IC50 was 8.34 µg/mL (≈ 26.7 µM).

Consider `CC12CC3CC(C)(C1)CC(C(=O)Nc1nc4ccccc4s1)(C3)C2`, for which the IC50 was 0.24 µg/mL (≈ 0.705 µM).

For `Cc1cc(Br)c2[nH]c(O)c(N=NC(=O)COc3ccccc3C)c2c1`, the IC50 was 18.7 µg/mL (≈ 46.4 µM).

In the case of `CCOc1ccc(NC(=O)C(C)Oc2ccc(C)c(C)c2)cc1` (stereo not drawn), the IC50 is 4.04 µg/mL (≈ 12.9 µM).

As for `Oc1ccc(Cl)cc1C1=NNC(c2ccccc2Cl)C1` (stereo not drawn), the IC50 is 0.65 µg/mL (≈ 2.12 µM).

For the compound `O=c1c2cc(I)ccc2nc(/C=C/c2cccnc2)n1CCc1ccccc1`, the IC50 is 31.4 µg/mL (≈ 65.4 µM).

Regarding `CC(NC(=O)c1ccc([N+](=O)[O-])o1)C12CC3CC(CC(C3)C1)C2` (stereo not drawn), the IC50 is 4.46 µg/mL (≈ 14 µM).

As for `CCC(C)Oc1ccc(C(=O)NC(=S)Nc2ccc3c(c2)COC3=O)cc1` (stereo not drawn), the IC50 is 0.55 µg/mL (≈ 1.43 µM).

Regarding `Oc1ccc(Br)c2cccnc12`, the IC50 was < 0.1 µg/mL.
